This assay deals with T1, ΔF508-CFTR (Homo sapiens, UniProt P13569, DEL508-508).
T1 construct: expressed in transfected cells
Kind of assay: Membrane potential optical (FRET/VIPR) assay, identification of potentiator compounds. In kind it is cell-based. The conditions noted are these: Table 3, assay not given; for % Activity: relative efficacy. The text has this:
I) Membrane Potential Optical Methods for Assaying ΔF508-CFTR Modulation Properties of Compounds The optical membrane potential assay utilized voltage-sensitive FRET sensors described by Gonzalez and Tsien (See, Gonzalez, J. E. and R. Y. Tsien (1995) “Voltage sensing by fluorescence resonance energy transfer in single cells” Biophys J 69(4): 1272-80, and Gonzalez, J. E. and R. Y. Tsien (1997) “Improved indicators of cell membrane potential that use fluorescence resonance energy transfer” Chem Biol 4(4): 269-77) in combination with instrumentation for measuring fluorescence changes such as the Voltage/Ion Probe Reader (VIPR) (See, […]. Oades, et al. (1999) “Cell-based assays and instrumentation for screening ion-channel targets” Drug Discov Today 4(9): 431-439). These voltage sensitive assays are based on the change in fluorescence resonant energy transfer (FRET) between the membrane-soluble, voltage-sensitive dye, DiSBAC2(3), and a fluorescent phospholipid, CC2-DMPE, which is attached to the outer leaflet of the plasma membrane and acts as a FRET donor. Changes in membrane potential (Vm) cause the negatively charged DiSBAC2(3) to redistribute across the plasma membrane and the amount of energy transfer from CC2-DMPE changes accordingly. The changes in fluorescence emission were monitored using VIPR which is an integrated liquid handler and fluorescent detector designed to conduct cell-based screens in 96- or 384-well microtiter plates. To identify potentiators of ΔF508-CFTR, a double-addition HTS assay format was developed. During the first addition, a Cl^--free medium with or without test compound was added to each well. […] (in mM) NaCl 160, KCl 4.5, CaCl2 2, MgCl2 1, HEPES 10, pH 7.4 with NaOH. • Chloride-free bath solution: Chloride salts in Bath Solution #1 are substituted with gluconate salts. • CC2-DMPE: Prepared as a 10 mM stock solution in DMSO and stored at -20° C. • DiSBAC2(3): Prepared as a 10 mM stock in DMSO and stored at -20° C. NIH3T3 mouse fibroblasts stably expressing ΔF508-CFTR are used for optical measurements of membrane potential. […] For all optical assays, the cells were seeded at 30,000/well in 384-well matrigel-coated plates and cultured for 2 hrs at 37° C. before culturing at 27° C. for 24 hrs. for the potentiator assay.

Some results are limits rather than exact numbers.

T1 sequence (P13569 with tags, fused parts or gaps DEL508-508): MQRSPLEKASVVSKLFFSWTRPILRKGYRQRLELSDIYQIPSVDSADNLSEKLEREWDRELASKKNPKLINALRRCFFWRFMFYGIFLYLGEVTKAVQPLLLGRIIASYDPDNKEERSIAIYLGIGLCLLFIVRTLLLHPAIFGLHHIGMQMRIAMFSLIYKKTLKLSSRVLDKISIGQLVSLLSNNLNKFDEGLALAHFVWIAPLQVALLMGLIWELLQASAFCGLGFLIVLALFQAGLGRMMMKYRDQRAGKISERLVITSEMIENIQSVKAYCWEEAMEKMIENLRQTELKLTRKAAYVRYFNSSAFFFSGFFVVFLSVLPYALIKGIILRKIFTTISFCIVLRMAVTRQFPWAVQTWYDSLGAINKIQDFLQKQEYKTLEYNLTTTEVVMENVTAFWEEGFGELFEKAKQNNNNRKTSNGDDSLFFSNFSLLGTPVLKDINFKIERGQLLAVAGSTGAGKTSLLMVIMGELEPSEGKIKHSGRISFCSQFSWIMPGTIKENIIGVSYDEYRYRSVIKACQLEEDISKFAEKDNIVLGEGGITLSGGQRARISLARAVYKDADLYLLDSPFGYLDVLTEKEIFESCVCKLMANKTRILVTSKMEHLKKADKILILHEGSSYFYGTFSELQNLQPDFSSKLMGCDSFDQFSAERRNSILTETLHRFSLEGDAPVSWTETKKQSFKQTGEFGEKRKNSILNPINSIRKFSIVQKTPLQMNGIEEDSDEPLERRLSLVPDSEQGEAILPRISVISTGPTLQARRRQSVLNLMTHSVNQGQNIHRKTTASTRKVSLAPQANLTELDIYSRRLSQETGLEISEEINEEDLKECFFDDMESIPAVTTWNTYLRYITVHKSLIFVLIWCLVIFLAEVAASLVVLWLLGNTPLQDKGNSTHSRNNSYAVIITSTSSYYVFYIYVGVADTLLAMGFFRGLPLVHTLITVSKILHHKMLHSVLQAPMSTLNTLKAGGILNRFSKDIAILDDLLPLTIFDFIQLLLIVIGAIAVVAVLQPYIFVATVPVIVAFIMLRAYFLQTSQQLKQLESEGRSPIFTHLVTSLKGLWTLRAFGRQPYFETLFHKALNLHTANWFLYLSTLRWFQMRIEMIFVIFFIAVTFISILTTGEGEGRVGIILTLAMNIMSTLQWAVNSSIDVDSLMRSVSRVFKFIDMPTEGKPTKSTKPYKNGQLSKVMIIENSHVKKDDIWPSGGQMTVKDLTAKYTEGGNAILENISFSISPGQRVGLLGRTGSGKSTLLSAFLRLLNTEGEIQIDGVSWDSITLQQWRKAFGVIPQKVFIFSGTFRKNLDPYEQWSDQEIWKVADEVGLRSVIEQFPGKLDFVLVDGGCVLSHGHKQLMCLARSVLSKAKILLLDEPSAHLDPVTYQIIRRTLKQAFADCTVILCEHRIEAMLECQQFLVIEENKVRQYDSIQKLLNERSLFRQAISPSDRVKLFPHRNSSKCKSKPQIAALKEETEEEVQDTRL

As to `Cc1ccc(NC(=O)c2c[nH]c3ccccc3c2=O)cc1` [Compound 31, 4-oxo-N-(p-tolyl)-1H-quinoline-3-carboxamide], the EC50 was less than 10 µM and the “% Activity” value is given as “++ (between 25% to 100%)”.
Turning to `O=C(Nc1cc2[nH]ccc2cc1Cl)c1c[nH]c2ccccc2c1=O` [Compound 32, N-(5-chloro-1H-indol-6-yl)-4-oxo-1H-quinoline-3-carboxamide], the EC50 is less than 10 µM and the “% Activity” value is given as “++ (between 25% to 100%)”.
As to `O=C(Nc1ccc2cc[nH]c2c1)c1c[nH]c2ccccc2c1=O` [Compound 33, N-(1H-indol-6-yl)-4-oxo-1H-quinoline-3-carboxamide], the EC50 was less than 10 µM and the “% Activity” value is “++ (between 25% to 100%)”.
For `CCC(CC)(CC)c1cc(F)c(NC(=O)c2cnc3ccccc3c2O)cc1O` [Compound 34, N-[4-(1,1-diethylpropyl)-2-fluoro-5-hydroxy-phenyl]-4-hydroxy-quinoline-3-carboxamide], in that order: less than 10 µM and “++ (between 25% to 100%)”.
As to `CC1(C)CCCNc2cc(NC(=O)c3c[nH]c4ccccc4c3=O)ccc21` [Compound 35, 1,4-dihydro-N-(2,3,4,5-tetrahydro-5,5-dimethyl-1H-benzo[b]azepin-8-yl)-4-oxoquinoline-3-carboxamide], the EC50 was less than 10 µM and the “% Activity” value was “++ (between 25% to 100%)”.
The matching figures for `CC(C)c1ccccc1NC(=O)c1c[nH]c2ccccc2c1=O` [Compound 36, N-(2-isopropylphenyl)-4-oxo-1H-quinoline-3-carboxamide]: less than 10 µM and “++ (between 25% to 100%)”.
The matching figures for `O=C(Nc1cccc2cc[nH]c12)c1c[nH]c2ccccc2c1=O` [Compound 37, N-(1H-indol-7-yl)-4-oxo-1H-quinoline-3-carboxamide]: less than 10 µM and “++ (between 25% to 100%)”.
Consider `O=C(Nc1ccccc1-c1cc2ccccc2[nH]1)c1c[nH]c2ccccc2c1=O` [Compound 38, N-[2-(1H-indol-2-yl)phenyl]-4-oxo-1H-quinoline-3-carboxamide], for which the EC50 was less than 10 µM and the “% Activity” value was “++ (between 25% to 100%)”.
The matching figures for `COc1nc2ccccc2c(OC)c1C(=O)Nc1cc(NC(=O)OC(C)(C)C)ccc1C(C)(C)C` [Compound 39, [3-[(2,4-dimethoxy-3-quinolyl)carbonylamino]-4-tert-butyl-phenyl]aminoformic acid tert-butyl ester]: 10 to 25 µM and “++ (between 25% to 100%)”.
As to `O=C(Nc1ccccc1CCO)c1c[nH]c2ccccc2c1=O` [Compound 40, N-[2-(2-hydroxyethyl)phenyl]-4-oxo-1H-quinoline-3-carboxamide], the EC50 was 25 to 60 µM and the “% Activity” value is “+ (<25%)”.
On to `CCCc1ccc(N)cc1NC(=O)c1c[nH]c2ccccc2c1=O` [Compound 41, N-(5-amino-2-propyl-phenyl)-4-oxo-1H-quinoline-3-carboxamide], for which the “% Activity” value is recorded as “++ (between 25% to 100%)”.
In the case of `O=C(Nc1ccccc1Oc1ncc(C(F)(F)F)cc1Cl)c1c[nH]c2ccccc2c1=O` [Compound 42, N-[2-[[3-chloro-5-(trifluoromethyl)-2-pyridyl]oxy]phenyl]-4-oxo-1H-quinoline-3-carboxamide], the concentration for a half-maximal effect (EC50) is less than 10 µM and the “% Activity” value is recorded as “++ (between 25% to 100%)”.
In the case of `CCOc1cccc(-c2cc(C(C)(C)C)c(O)cc2NC(=O)c2c[nH]c3ccccc3c2=O)c1` [Compound 43, N-[2-(3-ethoxyphenyl)-5-hydroxy-4-tert-butyl-phenyl]-4-oxo-1H-quinoline-3-carboxamide], the EC50 is less than 10 µM and the “% Activity” value was “++ (between 25% to 100%)”.
On to `Cc1nc2cc(NC(=O)c3c[nH]c4ccccc4c3=O)ccc2s1` [Compound 44, N-(2-methylbenzothiazol-5-yl)-4-oxo-1H-quinoline-3-carboxamide], for which the half-maximal effective concentration (EC50) is 10 to 25 µM and the “% Activity” value is reported as “++ (between 25% to 100%)”.
The matching figures for `O=C(Nc1cc(Cl)cc(NS(=O)(=O)CCN2CCOCC2)c1)c1c[nH]c2ccccc2c1=O` [Compound 46, N-[3-chloro-5-(2-morpholinoethylsulfonylamino)phenyl]-4-oxo-1H-quinoline-3-carboxamide]: 10 to 25 µM and “++ (between 25% to 100%)”.
Regarding `CC(C)c1ccc(NC(=O)c2c[nH]c3ccccc3c2=O)c(C(F)(F)F)c1` [Compound 47, N-[4-isopropyl-2-(trifluoromethyl)phenyl]-4-oxo-1H-quinoline-3-carboxamide], the concentration for a half-maximal effect (EC50) is less than 10 µM and the “% Activity” value is “++ (between 25% to 100%)”.
Consider `O=C(Nc1cc(Cl)ccc1F)c1c[nH]c2ccccc2c1=O` [Compound 48, N-(5-chloro-2-fluoro-phenyl)-4-oxo-1H-quinoline-3-carboxamide], for which the EC50 was less than 10 µM and the “% Activity” value was “++ (between 25% to 100%)”.
`COc1cccc(OC)c1-c1ccccc1NC(=O)c1c[nH]c2ccccc2c1=O` [Compound 49, N-[2-(2,6-dimethoxyphenyl)phenyl]-4-oxo-1H-quinoline-3-carboxamide]: the EC50 was less than 10 µM and the “% Activity” value is listed as “++ (between 25% to 100%)”.
Regarding `Cc1cc(C)c(NC(=O)c2c[nH]c3ccccc3c2=O)c(C)c1` [Compound 50, 4-oxo-N-(2,4,6-trimethylphenyl)-1H-quinoline-3-carboxamide], the EC50 is less than 10 µM and the “% Activity” value was “++ (between 25% to 100%)”.
Consider `CC1CCN(S(=O)(=O)c2ccc3[nH]cc(C(=O)Nc4cc5[nH]ccc5cc4C(C)(C)C)c(=O)c3c2)CC1` [Compound 51, 6-[(4-methyl-1-piperidyl)sulfonyl]-4-oxo-N-(5-tert-butyl-1H-indol-6-yl)-1H-quinoline-3-carboxamide], for which the EC50 is less than 10 µM and the “% Activity” value is given as “++ (between 25% to 100%)”.
Regarding `Cc1cccc(-c2ccccc2NC(=O)c2c[nH]c3ccccc3c2=O)c1` [Compound 52, N-[2-(m-tolyl)phenyl]-4-oxo-1H-quinoline-3-carboxamide], the EC50 was less than 10 µM and the “% Activity” value is reported as “++ (between 25% to 100%)”.
With `O=C(Nc1ccncc1)c1c[nH]c2ccccc2c1=O` [Compound 53, 4-oxo-N-(4-pyridyl)-1H-quinoline-3-carboxamide], the EC50 lay in the range of 25 to 60 µM and the “% Activity” value is listed as “+ (<25%)”.
As to `O=C(Nc1cccc2nsnc12)c1c[nH]c2ccccc2c1=O` [Compound 54, 4-oxo-N-(8-thia-7,9-diazabicyclo[4.3.0]nona-2,4,6,9-tetraen-5-yl)-1H-quinoline-3-carboxamide], the EC50 lay in the range of 25 to 60 µM and the “% Activity” value is “+ (<25%)”.
For `COc1c(N)cc(C(C)(C)C)cc1NC(=O)c1c[nH]c2ccccc2c1=O` [Compound 55, N-(3-amino-2-methoxy-5-tert-butyl-phenyl)-4-oxo-1H-quinoline-3-carboxamide], the EC50 was 25 to 60 µM and the “% Activity” value is listed as “+ (<25%)”.
Consider `O=C(Nc1cc2c(cc1O)CCCC2)c1c[nH]c2ccccc2c1=O` [Compound 56, 1,4-dihydro-N-(1,2,3,4-tetrahydro-6-hydroxynaphthalen-7-yl)-4-oxoquinoline-3-carboxamide], for which the concentration for a half-maximal effect (EC50) is less than 10 µM and the “% Activity” value is “++ (between 25% to 100%)”.
As for `CCC1(c2ccc(NC(=O)c3c[nH]c4ccccc4c3=O)cc2)CCC(=O)NC1=O` (stereo not drawn) [Compound 57, N-[4-(3-ethyl-2,6-dioxo-3-piperidyl)phenyl]-4-oxo-1H-quinoline-3-carboxamide], the EC50 was 10 to 25 µM and the “% Activity” value is on record as “+++ (>100%)”.
The matching figures for `Nc1cc(NC(=O)c2c[nH]c3ccccc3c2=O)ccc1OC(F)(F)F` [Compound 58, N-[3-amino-4-(trifluoromethoxy)phenyl]-4-oxo-1H-quinoline-3-carboxamide]: less than 10 µM and “++ (between 25% to 100%)”.
For `COc1ccc(C(C)C)cc1-c1ccccc1NC(=O)c1c[nH]c2ccccc2c1=O` [Compound 59, N-[2-(5-isopropyl-2-methoxy-phenyl)phenyl]-4-oxo-1H-quinoline-3-carboxamide], the EC50 was less than 10 µM and the “% Activity” value is on record as “+++ (>100%)”.
Regarding `CC(C)c1ccc(NC(=O)OC(C)(C)C)cc1NC(=O)c1c[nH]c2ccccc2c1=O` [Compound 60, [4-isopropyl-3-[(4-oxo-1H-quinolin-3-yl)carbonylamino]phenyl]aminoformic acid tert-butyl ester], the EC50 was less than 10 µM and the “% Activity” value is on record as “++ (between 25% to 100%)”.

The EC50 is the concentration that produces a half-maximal response.

The record behind these values is patent US8614327B2 (Vertex Pharmaceuticals Incorporated, priority 2004, dated 2013).
